Data as given in patent US12239627B2, “Method of treating conditions related to the PGI2 receptor” (Arena Pharmaceuticals, Inc., priority 2014, dated 2025).

Assay: Phase 1 multiple ascending dose, dose titration study with healthy subjects (adverse events, tolerated dose)
Assay type: in vivo, human
Method: This study was a phase 1, randomized, double-blind, placebo-controlled, multiple-dose, dose titration study. A titration interval of 6 days was employed, with each dose being administered for at least 5 days. One goal was to determine the effect of dose titration on adverse effects.
In each of two subject cohorts, Cohort 1 and Cohort 2, subjects were treated at each dose level for duration of 5 days with exception of the last dose level which included 7 days of treatment.
The protocol was amended to provide for an additional cohort, Cohort 3, in order to evaluate a different dose escalation regimen, as disclosed below.
Cohorts 1 and 2: Two groups of 15 subjects were enrolled and randomized to receive placebo (5 subjects per Cohort) or a starting dose of 0.05 mg Compound 1 (10 subjects per Cohort) on Day I. Once daily (q.d.) dosing continued through 5 days. If tolerated, the next dose escalation (placebo or 0.1 mg q.d. Compound 1) occurred on Day 6 and this dose was administered daily through Day 10.
Subsequent dose escalations were to occur in the same manner every 6th day for up to 3 additional dose escalations if tolerated (placebo or 0.2, 0.3, and 0.4 mg Compound 1) with the final dose maintained for a duration of 7 days. The dose could be decreased (“de-escalated”) or increased (“re-escalated”) based on assessment of safety and tolerability.
Cohort 3: One group of 25 subjects (S placebo and 20 active) were enrolled and randomized to receive a starting dose of 0.01 mg Compound 1 twice daily or placebo on Day 1. Twice daily dosing continued through 5 days. If tolerated, the next dose escalation (placebo or Compound 1 0.02 mg twice daily) occurred on Day 6 and this dose was administered daily through Day 10. Subsequent dose escalations were to occur in the same manner every 6th day for up to 4 additional dose escalations if tolerated (placebo or 0.03, 0.04. 0.05, and 0.07 mg twice daily Compound 1). The dose could be decreased (“de-escalated”) or increased (“re-escalated”) based on assessment of safety and tolerability. The doses tested in this cohort were 0.01, 0.02, 0.03, 0.04, 0.05, and 0.07 mg administered twice daily for a total daily dose of 0.02, 0.04, 0.06, 0.08, 0.1, and 0.14 mg, respectively.
Compound 1 capsules were provided as 0.01 mg (all Cohorts) and 0.1 mg (Cohorts 1 and 2 only) strengths.

[1] = Cohort 3, twice daily, 0.07 mg (N = 4)
[2] = Cohort 3, twice daily, Total (all doses) (N = 20)
[3] = Cohorts 1 and 2, once daily, 0.03 mg (N = 4)
[4] = Cohorts 1 and 2, once daily, 0.05 mg (N = 20)
[5] = Cohorts 1 and 2, once daily, 0.1 mg (N = 16)
[6] = Cohorts 1 and 2, once daily, 0.2 mg (N = 5)
[7] = Cohorts 1 and 2, once daily, 0.3 mg (N = 1)
[8] = Cohorts 1 and 2, once daily, 0.4 mg (N = 1)
[9] = Cohorts 1 and 2, once daily, Total (all doses) (N = 20)
[10] = Cohorts 1 and 2, 0.05 mg once daily

## O=C(O)COC[C@H]1CC[C@H](COC(=O)N(c2ccccc2)c2ccc(Cl)cc2)CC1 [Compound 1, 2-(((1r,4r)-4-(((4-chlorophenyl)(phenyl)carbamoyloxy)methyl)cyclohexyl)methoxy)acetic acid]
[1]
  Adverse Events (no. of subjects) leading to Decrease of Dose: Priapism: 0 subjects
  Adverse Events (no. of subjects) leading to Decrease of Dose: Vomiting: 0 subjects
[2]
  Adverse Events (no. of subjects) leading to Decrease of Dose: Abdominal pain: 2 subjects
  Adverse Events (no. of subjects) leading to Decrease of Dose: Arthralgia: 2 subjects
  Adverse Events (no. of subjects) leading to Decrease of Dose: Chest discomfort: 1 subjects
  Adverse Events (no. of subjects) leading to Decrease of Dose: Chest pain: 1 subjects
  Adverse Events (no. of subjects) leading to Decrease of Dose: Diarrhoea: 2 subjects
  Adverse Events (no. of subjects) leading to Decrease of Dose: Dizziness: 3 subjects
  Adverse Events (no. of subjects) leading to Decrease of Dose: Headache: 10 subjects
  Adverse Events (no. of subjects) leading to Decrease of Dose: Jaw pain: 1 subjects
  Adverse Events (no. of subjects) leading to Decrease of Dose: Myalgia: 4 subjects
  Adverse Events (no. of subjects) leading to Decrease of Dose: Nausea: 5 subjects
  Adverse Events (no. of subjects) leading to Decrease of Dose: Palpitations: 1 subjects
  Adverse Events (no. of subjects) leading to Decrease of Dose: Priapism: 1 subjects
  Adverse Events (no. of subjects) leading to Decrease of Dose: Vomiting: 1 subjects
Cohort 3, 0.01 mg twice daily
  Tolerability of the starting dose: all of the subjects were able to tolerate
Cohort 3, 0.02 mg twice daily
  Tolerability of the first escalation: all of the subjects were able to tolerate
Cohort 3, 0.03 mg twice daily
  Subjects who completed the study at the dose: Five
Cohort 3, 0.04 mg twice daily
  Subjects able to escalate to the dose level through study completion: Two
Cohort 3, 0.05 mg
  Subjects able to escalate to the dose level through study completion: Five
Cohort 3, 0.07 mg twice daily
  Tolerability of the dose: tolerated through study completion
Cohort 3, 0.07 mg twice daily, highest dose level
  Subjects able to escalate to the dose: Two
Cohort 3, Day 20
  Subjects who discontinued treatment due to an adverse event: One
Cohorts 1 and 2
  Subjects who received 0.03 mg as highest dose for at least 3 days: 0.03 mg-17 subjects
  Subjects who received 0.1 mg as highest dose for at least 3 days: 0.1 mg-8 subjects
  Subjects who received 0.2 mg as highest dose for at least 3 days: 0.2 mg-1 subjects
  Subjects who received 0.30 mg as highest dose for at least 3 days: 0.30 mg-1 subject
  Subjects with Final Compound 1 Total Daily Dose of 0.03 mg: 0.03 mg-3 subjects
  Subjects with Final Compound 1 Total Daily Dose of 0.05 mg: 0.05 mg-9 subjects
  Subjects with Final Compound 1 Total Daily Dose of 0.10 mg: 0.10 mg-7 subjects
  Subjects with Final Compound 1 Total Daily Dose of 0.30 mg: 0.30 mg-1 subject
[3]
  Adverse Events (no. of subjects) leading to Decrease of Dose: Chest pain: 0 subjects
  Adverse Events (no. of subjects) leading to Decrease of Dose: Diarrhoea: 0 subjects
  Adverse Events (no. of subjects) leading to Decrease of Dose: Erythema: 0 subjects
  Adverse Events (no. of subjects) leading to Decrease of Dose: Headache: 0 subjects
  Adverse Events (no. of subjects) leading to Decrease of Dose: Jaw pain: 0 subjects
  Adverse Events (no. of subjects) leading to Decrease of Dose: Nausea: 0 subjects
  Adverse Events (no. of subjects) leading to Decrease of Dose: Vomiting: 0 subjects
[4]
  Adverse Events (no. of subjects) leading to Decrease of Dose: Chest pain: 0 subjects
  Adverse Events (no. of subjects) leading to Decrease of Dose: Diarrhoea: 1 subjects
  Adverse Events (no. of subjects) leading to Decrease of Dose: Erythema: 0 subjects
  Adverse Events (no. of subjects) leading to Decrease of Dose: Headache: 2 subjects
  Adverse Events (no. of subjects) leading to Decrease of Dose: Jaw pain: 0 subjects
  Adverse Events (no. of subjects) leading to Decrease of Dose: Nausea: 1 subjects
  Adverse Events (no. of subjects) leading to Decrease of Dose: Vomiting: 4 subjects
[5]
  Adverse Events (no. of subjects) leading to Decrease of Dose: Chest pain: 1 subjects
  Adverse Events (no. of subjects) leading to Decrease of Dose: Diarrhoea: 0 subjects
  Adverse Events (no. of subjects) leading to Decrease of Dose: Erythema: 0 subjects
  Adverse Events (no. of subjects) leading to Decrease of Dose: Headache: 5 subjects
  Adverse Events (no. of subjects) leading to Decrease of Dose: Jaw pain: 1 subjects
  Adverse Events (no. of subjects) leading to Decrease of Dose: Nausea: 1 subjects
  Adverse Events (no. of subjects) leading to Decrease of Dose: Vomiting: 2 subjects
[6]
  Adverse Events (no. of subjects) leading to Decrease of Dose: Chest pain: 0 subjects
  Adverse Events (no. of subjects) leading to Decrease of Dose: Diarrhoea: 0 subjects
  Adverse Events (no. of subjects) leading to Decrease of Dose: Erythema: 0 subjects
  Adverse Events (no. of subjects) leading to Decrease of Dose: Headache: 1 subjects
  Adverse Events (no. of subjects) leading to Decrease of Dose: Jaw pain: 0 subjects
  Adverse Events (no. of subjects) leading to Decrease of Dose: Nausea: 2 subjects
  Adverse Events (no. of subjects) leading to Decrease of Dose: Vomiting: 2 subjects
[7]
  Adverse Events (no. of subjects) leading to Decrease of Dose: Chest pain: 0 subjects
  Adverse Events (no. of subjects) leading to Decrease of Dose: Diarrhoea: 0 subjects
  Adverse Events (no. of subjects) leading to Decrease of Dose: Erythema: 0 subjects
  Adverse Events (no. of subjects) leading to Decrease of Dose: Headache: 0 subjects
  Adverse Events (no. of subjects) leading to Decrease of Dose: Jaw pain: 0 subjects
  Adverse Events (no. of subjects) leading to Decrease of Dose: Nausea: 0 subjects
  Adverse Events (no. of subjects) leading to Decrease of Dose: Vomiting: 0 subjects
[8]
  Adverse Events (no. of subjects) leading to Decrease of Dose: Chest pain: 0 subjects
  Adverse Events (no. of subjects) leading to Decrease of Dose: Diarrhoea: 0 subjects
  Adverse Events (no. of subjects) leading to Decrease of Dose: Erythema: 1 subjects
  Adverse Events (no. of subjects) leading to Decrease of Dose: Headache: 0 subjects
  Adverse Events (no. of subjects) leading to Decrease of Dose: Jaw pain: 0 subjects
  Adverse Events (no. of subjects) leading to Decrease of Dose: Nausea: 0 subjects
  Adverse Events (no. of subjects) leading to Decrease of Dose: Vomiting: 0 subjects
[9]
  Adverse Events (no. of subjects) leading to Decrease of Dose: Chest pain: 1 subjects
  Adverse Events (no. of subjects) leading to Decrease of Dose: Diarrhoea: 1 subjects
  Adverse Events (no. of subjects) leading to Decrease of Dose: Erythema: 1 subjects
  Adverse Events (no. of subjects) leading to Decrease of Dose: Headache: 8 subjects
  Adverse Events (no. of subjects) leading to Decrease of Dose: Jaw pain: 1 subjects
  Adverse Events (no. of subjects) leading to Decrease of Dose: Nausea: 4 subjects
  Adverse Events (no. of subjects) leading to Decrease of Dose: Vomiting: 8 subjects
[10]
  Subjects unable to tolerate the starting dose (number): three
  Subjects unable to tolerate the starting dose (percent): 15%
Cohorts 1 and 2, 0.2 mg once daily
  Subjects who tolerated the dose: One
Cohorts 1 and 2, 0.4 mg once daily, highest dose administered (one subject)
  Tolerability of the dose: not tolerated
Cohorts 1 and 2, Day 1
  Subjects who withdrew: One
Within the Compound 1 group
  AEs considered moderate in intensity: 95%
  AEs deemed by the investigator to be probably related to study drug: 90%
